What follows are compounds tested on Plasmodium falciparum (assay: Antimalarial activity against Plasmodium falciparum 3D7 infected in human erythrocytes after 48 hrs by SYBR green assay). Details: Plasmodium falciparum, 3D7, 48 h; read-out: IC50.
Format: functional, organism-based

IC50 [µM]	Structure (SMILES)
> 5	CC(C)C[C@H](NC(=O)[C@H](CC(C)C)NC(=O)N1CCOCC1)C(=O)N[C@@H](Cc1c[nH]c2ccccc12)C(=O)N1CCN=C1COc1ccc(F)cc1
10	CC(C)C[C@H](NC(=O)CN1CCC(O)CC1)C(=O)N[C@@H](CC(C)C)C(=O)N[C@@H](Cc1c[nH]c2ccccc12)C(=O)N1CCN=C1COc1ccc(F)cc1
16.7	CC(C)C[C@H](NC(=O)CN1CCC(O)CC1)C(=O)N[C@@H](CC(C)C)C(=O)N[C@@H](Cc1c[nH]c2ccccc12)C(=O)N1CCC[C@H]1COc1ccc(F)cc1
10.2	CC(C)C[C@H](NC(=O)[C@H](CC(C)C)NC(=O)N1CCOCC1)C(=O)N[C@@H](Cc1ccccc1)C(=O)N1CCC[C@H]1COc1ccc(F)cc1
9.7	CC(C)C[C@H](NC(=O)[C@H](CC(C)C)NC(=O)N1CCCCC1)C(=O)N[C@@H](Cc1c[nH]c2ccccc12)C(=O)N1CCC[C@H]1COc1ccc(F)cc1
17.5	CC(C)C[C@H](NC(=O)CN1CCN(C)CC1)C(=O)N[C@@H](CC(C)C)C(=O)N[C@@H](Cc1c[nH]c2ccccc12)C(=O)N1CCN=C1COc1ccc(F)cc1
> 5	CC(C)C[C@H](NC(=O)[C@H](CC(C)C)NC(=O)N1CCOCC1)C(=O)N[C@H](C(=O)N1CCN=C1COc1ccc(F)cc1)c1ccccc1

Further lines, the compound ahead of its results:

Structure (SMILES)	IC50 [µM]
CC(C)C[C@H](NC(=O)[C@H](CC(C)C)NC(=O)N1CCCCC1)C(=O)N[C@@H](Cc1ccccc1)C(=O)NNc1ccccc1	14.2
CC(C)C[C@H](NC(=O)c1ccco1)C(=O)N[C@@H](CC(C)C)C(=O)N[C@@H](Cc1ccccc1)C(=O)NNc1ccccc1	27.9
COc1ccc(OC[C@@H]2CCCN2C(=O)[C@H](Cc2ccccc2)NC(=O)[C@H](CC(C)C)NC(=O)[C@H](CC(C)C)NC(=O)N2CCCCC2)cc1	35.7
CC(C)C[C@H](NC(=O)CN1CCC(CCO)CC1)C(=O)N[C@@H](CC(C)C)C(=O)N[C@@H](Cc1c[nH]c2ccccc12)C(=O)N1CCC[C@H]1COc1ccc(F)cc1	6.7
COC(=O)C1CCN(CC(=O)N[C@@H](CC(C)C)C(=O)N[C@@H](CC(C)C)C(=O)N[C@@H](Cc2c[nH]c3ccccc23)C(=O)N2CCC[C@H]2COc2ccc(F)cc2)CC1	6.7

What follows are compounds tested on CHO (assay: Cytotoxicity against CHO cells after 24 hrs by WST-1 assay). Details: Cricetulus griseus.
Format: cell-based

Structure (SMILES)	IC50 [µM]
CC(C)C[C@H](NC(=O)[C@H](CC(C)C)NC(=O)N1CCCCC1)C(=O)N[C@@H](Cc1ccccc1)C(=O)NNc1ccccc1	99
CC(C)C[C@H](NC(=O)c1ccco1)C(=O)N[C@@H](CC(C)C)C(=O)N[C@@H](Cc1ccccc1)C(=O)NNc1ccccc1	114
CC(C)C[C@H](NC(=O)[C@H](CC(C)C)NC(=O)N1CCOCC1)C(=O)N[C@@H](Cc1ccccc1)C(=O)N1CCC[C@H]1COc1ccc(F)cc1	53
COc1ccc(OC[C@@H]2CCCN2C(=O)[C@H](Cc2ccccc2)NC(=O)[C@H](CC(C)C)NC(=O)[C@H](CC(C)C)NC(=O)N2CCCCC2)cc1	40
COC(=O)C1CCN(CC(=O)N[C@@H](CC(C)C)C(=O)N[C@@H](CC(C)C)C(=O)N[C@@H](Cc2c[nH]c3ccccc23)C(=O)N2CCC[C@H]2COc2ccc(F)cc2)CC1	> 500

These compounds were tested against T1, Falcipain 2 (Plasmodium falciparum, UniProt Q9N6S8) (assay: Inhibition of Plasmodium falciparum recombinant falcipain-2 using ZFR-AMC as substrate after 30 mins by fluorometric assay). Details: not given.
T1 sequence (Q9N6S8 whole entry): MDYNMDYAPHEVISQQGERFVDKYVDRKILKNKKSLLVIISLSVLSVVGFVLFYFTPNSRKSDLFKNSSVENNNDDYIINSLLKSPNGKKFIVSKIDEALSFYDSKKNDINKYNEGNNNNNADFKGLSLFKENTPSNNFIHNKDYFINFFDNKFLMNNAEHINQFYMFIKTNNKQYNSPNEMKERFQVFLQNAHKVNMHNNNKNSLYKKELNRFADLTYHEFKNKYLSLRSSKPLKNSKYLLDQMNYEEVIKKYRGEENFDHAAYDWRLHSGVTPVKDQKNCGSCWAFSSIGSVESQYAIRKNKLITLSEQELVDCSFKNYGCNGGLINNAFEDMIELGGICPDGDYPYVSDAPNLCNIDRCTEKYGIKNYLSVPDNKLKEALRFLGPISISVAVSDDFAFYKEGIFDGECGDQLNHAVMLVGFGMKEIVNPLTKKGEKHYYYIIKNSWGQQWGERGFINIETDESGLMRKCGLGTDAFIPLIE

Ki [µM]	Structure (SMILES)
1.8	CC(C)C[C@H](NC(=O)[C@H](CC(C)C)NC(=O)N1CCOCC1)C(=O)N[C@@H](Cc1c[nH]c2ccccc12)C(=O)N1CCN=C1COc1ccc(F)cc1
13.6	CC(C)C[C@H](NC(=O)CN1CCC(O)CC1)C(=O)N[C@@H](CC(C)C)C(=O)N[C@@H](Cc1c[nH]c2ccccc12)C(=O)N1CCN=C1COc1ccc(F)cc1
2.53	CC(C)C[C@H](NC(=O)CN1CCC(O)CC1)C(=O)N[C@@H](CC(C)C)C(=O)N[C@@H](Cc1c[nH]c2ccccc12)C(=O)N1CCC[C@H]1COc1ccc(F)cc1
0.3	CC(C)C[C@H](NC(=O)[C@H](CC(C)C)NC(=O)N1CCOCC1)C(=O)N[C@@H](Cc1ccccc1)C(=O)N1CCC[C@H]1COc1ccc(F)cc1
0.4	CC(C)C[C@H](NC(=O)[C@H](CC(C)C)NC(=O)N1CCCCC1)C(=O)N[C@@H](Cc1c[nH]c2ccccc12)C(=O)N1CCC[C@H]1COc1ccc(F)cc1
10.6	CC(C)C[C@H](NC(=O)CN1CCN(C)CC1)C(=O)N[C@@H](CC(C)C)C(=O)N[C@@H](Cc1c[nH]c2ccccc12)C(=O)N1CCN=C1COc1ccc(F)cc1
7	CC(C)C[C@H](NC(=O)[C@H](CC(C)C)NC(=O)N1CCOCC1)C(=O)N[C@H](C(=O)N1CCN=C1COc1ccc(F)cc1)c1ccccc1

The remaining lines, values behind:

Structure (SMILES)	Ki [µM]
CC(C)C[C@H](NC(=O)[C@H](CC(C)C)NC(=O)N1CCCCC1)C(=O)N[C@@H](Cc1ccccc1)C(=O)NNc1ccccc1	0.8
CC(C)C[C@H](NC(=O)c1ccco1)C(=O)N[C@@H](CC(C)C)C(=O)N[C@@H](Cc1ccccc1)C(=O)NNc1ccccc1	0.6
COc1ccc(OC[C@@H]2CCCN2C(=O)[C@H](Cc2ccccc2)NC(=O)[C@H](CC(C)C)NC(=O)[C@H](CC(C)C)NC(=O)N2CCCCC2)cc1	0.3
CC(C)C[C@H](NC(=O)CN1CCC(CCO)CC1)C(=O)N[C@@H](CC(C)C)C(=O)N[C@@H](Cc1c[nH]c2ccccc12)C(=O)N1CCC[C@H]1COc1ccc(F)cc1	3.29
COC(=O)C1CCN(CC(=O)N[C@@H](CC(C)C)C(=O)N[C@@H](CC(C)C)C(=O)N[C@@H](Cc2c[nH]c3ccccc23)C(=O)N2CCC[C@H]2COc2ccc(F)cc2)CC1	4.6

— ChEMBL document CHEMBL3407376, “Identification of novel class of falcipain-2 inhibitors as potential antimalarial agents” (Bioorg Med Chem, 2015)
